The subject of series [1] is harmaline-induced motor impairment in male SD rats. Kind of series: Wire grip test with harmaline in SD rats. To be noted: harmaline 30 mg/kg, 10 mg/kg, reference compound. In kind it is in vivo, rat. The source says: (§1) Each of six groups of male SD rats were subjected to a tremor assessment, followed by three ADL-like measures including open field test, rotarod test, and wire grip test after receiving doses of either vehicle, Formula (I), or propranolol, followed by either saline or harmaline, as outlined below in Table 22 below.
Fifteen minutes after the rotarod test, rats were subjected to a wire grip test using an 80 cm long and 7 mm in diameter wire placed at a height of 50 cm.

For series [2], the system named is rat spontaneous locomotor activity (sLMA). Kind of series: Rat spontaneous locomotor activity (sLMA) assay. In kind it is in vivo. The settings on record: rats, 0-30 min; compound of Formula (I) 1 mg/kg p.o., propranolol 1 or 3 mg/kg i.p., alone or in combination. The method, then:
[…] Rat sLMA was measured from 0-30 min (0 minutes is 60 minutes after administration of the compound of Formula (I) and 20 minutes after administration of propranolol).

The test system of series [3] is harmaline-induced motor impairment in male SD rats. Kind of series: Rotarod test with harmaline in SD rats. In kind it is in vivo, rat. To be noted: harmaline 30 mg/kg, 10 mg/kg. As for the experimental part:
as §1
Fifteen minutes after the open field test, the rats were subjected to a rotarod test. The speed of the rotarod increased from 10 rpms to 60 rpms within the first five minutes of the test. FIG. 9 is a bar graph showing the mean of latency to fall in the rotarod test measured in rats that were administered 30 mg/kg harmaline and also administered 10 mg/kg propranolol or 1 mg/kg, 3 mg/kg or 10 mg/kg study drug.
For orientation: In the rotarod test animals must keep their balance on a rotating rod.

In series [4] the test system is harmaline-induced tremor in male SD rats. Kind of series: Tremor assessment (tremor score 0-4) with harmaline in SD rats. In kind it is in vivo, rat. The settings on record: harmaline 30 mg/kg, 10 mg/kg. The text has this: Each of six groups of male SD rats were subjected to a tremor assessment, followed by three ADL-like measures including open field test, rotarod test, and wire grip test after receiving doses of either vehicle, Formula (I), or propranolol, followed by either saline or harmaline, as outlined below in Table 22 below. Twenty minutes after administration of harmaline or saline, the rats were subjected to a tremor assessment using the score criteria outlined in the table below.

Series [5] can be described thus: Plasma and brain tissue concentrations in rats after harmaline testing. In kind it is in vivo, rat. To be noted: collected immediately after harmaline testing. The method, then:
Plasma and brain tissue sample collection (at 90 min post dosing of study compound) was evaluated in […]. N=15 in each group. Plasma and brain tissue samples were collected immediately after harmaline testing. Plasma sample number: 5×15=75. Brain tissue sample number: 5×15=75.

Series [6] has as its system harmaline-induced decrease in travelling distance in male SD rats. Kind of series: Open field test with harmaline in SD rats. In kind it is in vivo, rat. The settings on record: harmaline 30 mg/kg, 10 mg/kg. The method, then: as §1
Fifteen minutes after the tremor assessment, the rats were subjected to an open field test. FIG. 8 is a bar graph showing the traveling distance in 0-5 minutes (mm) measured in rats that were administered 30 mg/kg harmaline and also administered 10 mg/kg propranolol or 1 mg/kg, 3 mg/kg or 10 mg/kg study drug.

Each structure is given as a SMILES string. Entries after “also recorded” stand apart in the source; their conditions may differ.

As for `CC(C)NCC(O)COc1cccc2ccccc12` (stereo not drawn) [propranolol, reference compound], in series [1], the “latency to fall in wire grip test” value is “significant reduction in motor impairment; also recorded: significantly attenuated”. In addition, the “total sLMA (total distance travelled)” value in series [2] is reported as “do not significantly reduce”. Moreover, in series [3], the “latency to fall in rotarod test vs vehicle and harmaline only” value was “failed to display any significant improvement; also recorded: no effect”. Also, in series [4], the “average tremor score vs vehicle and harmaline only” value is on record as “significantly lower; also recorded: significantly inhibited”. In addition, the “plasma and brain concentrations” value in series [5] is on record as “consistent with those measured in previous studies”. Also, in series [6], the “harmaline-induced decrease in spontaneous locomotor activity in the open field” value is “no effect”.

The record behind these values is US20250170114A1, “METHODS OF TREATMENT USING T-TYPE CALCIUM CHANNEL MODULATORS” (Praxis Precision Medicines, Inc., priority 2022, published 2025).
